Test results published in the supplement of paper PMC11208160.

Assay: recombinant barcode read abundance after kanamycin selection (control-corrected) (log10(CPM+1)); higher = more efficient recombination; sequences stand for … in AGTGCAGAGAAAATCGGCCAGTTTTCTCTGCCTGCAGTCCGCATGCCGT…AGATTTATGCAGCGGACTGCCTTTCTCCCAAAGTGATAAACCGGACAGTATCATGGACCGGTTTTCCCGGTAATCCGTATTTGCAAGGTTGGTTTCACT; site = the 11-nt target
Summary of the method: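 IS621 bridge RNA target-binding loops were paired with targets in a pooled library tested in E. coli. After co-electroporation with a donor plasmid, cells were plated in two replicates on chloramphenicol/ampicillin LB agar (control) and on chloramphenicol/ampicillin/kanamycin carrying 0.1 mM IPTG. Barcodes at recombinant junctions were counted as counts per million, averaged and control-corrected to give recombination efficiency. Values are log10(CPM+1).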
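Note: IS621 recombinase and bridge RNA in Escherichia coli cells.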

| Sequence | recombinant barcode read abundance (log10) |
| --- | --- |
| TTAGCCTCTTGGGTTCTAACCTGTTGCCT (site TTAGCGTCTAG) | 0.137 |
| TTAGCCTCTTGGGTTCTAACCTGTTGCCT (site TTAGCTTCTAG) | 0.00901 |
| TTAGCGTCTTGGGTTCTAACCTGTTGCCT (site TTAGCATCTAG) | 1.47 |
| TTAGCGTCTTGGGTTCTAACCTGTTGCCT (site TTAGCCTCTAG) | 0.0674 |
| TTAGCGTCTTGGGTTCTAACCTGTTGCCT (site TTAGCGTCTAG) | 1.73 |
| TTAGCGTCTTGGGTTCTAACCTGTTGCCT (site TTAGCTTCTAG) | 0.129 |
| TTATACACTTGGGTTCTAACCTGTTGCTC (site GATAGGGCTAG) | 0.0179 |
| TTATACACTTGGGTTCTAACCTGTTGCTC (site TTATACACTGA) | 0.919 |
| TTATGATCTTGGGTTCTAACCTGTTGCCT (site TCATGAACTAG) | 0.0371 |
| TTATGATCTTGGGTTCTAACCTGTTGCCT (site TTATGATCTAG) | 0.193 |
| TTATGGGCTTGGGTTCTAACCTGTTGCCG (site TCCTGGGCTCG) | 0.114 |
| TTATGGGCTTGGGTTCTAACCTGTTGCCG (site TTATGGGCTCG) | 0.88 |
| TTCAAGACTTGGGTTCTAACCTGTTGCCT (site TTCAAGACTAG) | 0.681 |
| TTCAAGACTTGGGTTCTAACCTGTTGCCT (site TTCAAGCCTAG) | 0.0955 |
| TTCAAGACTTGGGTTCTAACCTGTTGCCT (site TTCAAGGCTAG) | 0 |
| TTCAAGACTTGGGTTCTAACCTGTTGCCT (site TTCAAGTCTAG) | 0.241 |
| TTCAAGCCTTGGGTTCTAACCTGTTGCGG (site TTCAAGCCTAC) | 0.222 |
| TTCAAGCCTTGGGTTCTAACCTGTTGCGG (site TTCAAGCCTCC) | 1.15 |
| TTCAAGGCTTGGGTTCTAACCTGTTGCCT (site TTCAAGACTAG) | 0.0627 |
| TTCAAGGCTTGGGTTCTAACCTGTTGCCT (site TTCAAGCCTAG) | 0.118 |
| TTCAAGGCTTGGGTTCTAACCTGTTGCCT (site TTCAAGGCTAG) | 0.17 |
| TTCAAGGCTTGGGTTCTAACCTGTTGCCT (site TTCAAGTCTAG) | 0.461 |

| Sequence | recombinant barcode read abundance (log10) |
| --- | --- |
| TTCAAGTCTTGGGTTCTAACCTGTTGCGT (site TTCAACTCTAC) | 0.0281 |
| TTCAAGTCTTGGGTTCTAACCTGTTGCGT (site TTCAAGTCTAC) | 1.33 |
| TTCAATTCTTGGGTTCTAACCTGTTGCTT (site TATAATTCTAA) | 0.00963 |
| TTCAATTCTTGGGTTCTAACCTGTTGCTT (site TTCAATTCTAA) | 0.0521 |
| TTCCCTACTTGGGTTCTAACCTGTTGCCT (site CTCCCAACTAG) | 0.102 |
| TTCCCTACTTGGGTTCTAACCTGTTGCCT (site TTCCCTACTAG) | 0.452 |
| TTCCGAGCTTGGGTTCTAACCTGTTGCAG (site CCTACGCCTTG) | 0.216 |
| TTCCGAGCTTGGGTTCTAACCTGTTGCAG (site TTCCGAGCTCT) | 0.873 |
| TTCGGAGCTTGGGTTCTAACCTGTTGCTG (site TTCGGAGCTCA) | 1.56 |
| TTCGGAGCTTGGGTTCTAACCTGTTGCTG (site TTGGGAGCTCA) | 0.0871 |
| TTCGGCTCTTGGGTTCTAACCTGTTGCTA (site CGATCACCTAG) | 0.0491 |
| TTCGGCTCTTGGGTTCTAACCTGTTGCTA (site TTCGGCTCTTA) | 0.605 |
| TTCGTAGCTTGGGTTCTAACCTGTTGCGT (site TTCGTAGCTAC) | 1.29 |
| TTCGTAGCTTGGGTTCTAACCTGTTGCGT (site TTCGTAGCTAG) | 0.285 |
| TTCTACACTTGGGTTCTAACCTGTTGCAT (site GAACCTTCTCC) | 0.107 |
| TTCTACACTTGGGTTCTAACCTGTTGCAT (site TTCTACACTAT) | 0.298 |
| TTCTACTCTTGGGTTCTAACCTGTTGCCT (site CTCTACTCTAG) | 0.75 |
| TTCTACTCTTGGGTTCTAACCTGTTGCCT (site TTCTACTCTAG) | 0.405 |
| TTCTCTCCTTGGGTTCTAACCTGTTGCCT (site TTCTATCCTAG) | 0.0831 |
| TTCTCTCCTTGGGTTCTAACCTGTTGCCT (site TTCTCTCCTAG) | 0.206 |
| TTCTCTCCTTGGGTTCTAACCTGTTGCCT (site TTCTGTCCTAG) | 0.00855 |
| TTCTCTCCTTGGGTTCTAACCTGTTGCCT (site TTCTTTCCTAG) | 0.169 |

| Sequence | recombinant barcode read abundance (log10) |
| --- | --- |
| TTCTCTTCTTGGGTTCTAACCTGTTGCCT (site TTCTCTTCTAG) | 0.0495 |
| TTCTCTTCTTGGGTTCTAACCTGTTGCCT (site TTCTGTTCTAG) | 0.103 |
| TTCTGAACTTGGGTTCTAACCTGTTGCCT (site GTCTCAACTAG) | 0.109 |
| TTCTGAACTTGGGTTCTAACCTGTTGCCT (site TTCTGAACTAG) | 0.126 |
| TTCTTACCTTGGGTTCTAACCTGTTGCCT (site TACTTACCTAG) | 0.0709 |
| TTCTTACCTTGGGTTCTAACCTGTTGCCT (site TTCTTACCTAG) | 0.654 |
| TTCTTGCCTTGGGTTCTAACCTGTTGCCT (site TTATTGTCTAG) | 0.111 |
| TTCTTGCCTTGGGTTCTAACCTGTTGCCT (site TTCTTGCCTAG) | 0.665 |
| TTCTTTCCTTGGGTTCTAACCTGTTGCCT (site TTCTATCCTAG) | 0.0663 |
| TTCTTTCCTTGGGTTCTAACCTGTTGCCT (site TTCTCTCCTAG) | 0.0684 |
| TTCTTTCCTTGGGTTCTAACCTGTTGCCT (site TTCTGTCCTAG) | 0.0839 |
| TTCTTTCCTTGGGTTCTAACCTGTTGCCT (site TTCTTTCCTAG) | 0.11 |
| TTGACGACTTGGGTTCTAACCTGTTGCCA (site TTGACGACTTG) | 0.36 |
| TTGACGACTTGGGTTCTAACCTGTTGCCA (site TTGCCGACTTG) | 0.217 |
| TTGACGACTTGGGTTCTAACCTGTTGCCA (site TTGGCGACTTG) | 0.116 |
| TTGACGACTTGGGTTCTAACCTGTTGCCA (site TTGTCGACTTG) | 0.0686 |
| TTGACGGCTTGGGTTCTAACCTGTTGCCT (site CCATTCCCTTA) | 0.041 |
| TTGACGGCTTGGGTTCTAACCTGTTGCCT (site TTGACGGCTAG) | 0.165 |
| TTGAGGACTTGGGTTCTAACCTGTTGCCT (site ATGAGGACTAG) | 0.0377 |
| TTGAGGACTTGGGTTCTAACCTGTTGCCT (site CTGAGGACTAG) | 0.146 |
| TTGAGGACTTGGGTTCTAACCTGTTGCCT (site GTGAGGACTAG) | 0 |
| TTGAGGACTTGGGTTCTAACCTGTTGCCT (site TTGAGGACTAG) | 0.606 |

| Sequence | recombinant barcode read abundance (log10) |
| --- | --- |
| TTGAGGCCTTGGGTTCTAACCTGTTGCGG (site TCGAGTCCTCC) | 0.141 |
| TTGAGGCCTTGGGTTCTAACCTGTTGCGG (site TTGAGGCCTCC) | 2.39 |
| TTGAGTGCTTGGGTTCTAACCTGTTGCCT (site TTGAATGCTAG) | 0.259 |
| TTGAGTGCTTGGGTTCTAACCTGTTGCCT (site TTGACTGCTAG) | 0.0508 |
| TTGAGTGCTTGGGTTCTAACCTGTTGCCT (site TTGAGTGCTAG) | 0.804 |
| TTGAGTGCTTGGGTTCTAACCTGTTGCCT (site TTGATTGCTAG) | 0.254 |
| TTGATTGCTTGGGTTCTAACCTGTTGCCT (site TTGAATGCTAG) | 0.0762 |
| TTGATTGCTTGGGTTCTAACCTGTTGCCT (site TTGACTGCTAG) | 0.0306 |
| TTGATTGCTTGGGTTCTAACCTGTTGCCT (site TTGAGTGCTAG) | 0.425 |
| TTGATTGCTTGGGTTCTAACCTGTTGCCT (site TTGATTGCTAG) | 0.497 |
| TTGCGTGCTTGGGTTCTAACCTGTTGCTT (site TTGCGAGCTAT) | 0.27 |
| TTGCGTGCTTGGGTTCTAACCTGTTGCTT (site TTGCGTGCTAA) | 0.518 |
| TTGCTAGCTTGGGTTCTAACCTGTTGCGG (site GGAACTACTGT) | 0.0762 |
| TTGCTAGCTTGGGTTCTAACCTGTTGCGG (site TTGCTAGCTCC) | 1.56 |
| TTGGAAGCTTGGGTTCTAACCTGTTGCCT (site TTGGAAGCTAG) | 2.1 |
| TTGGAAGCTTGGGTTCTAACCTGTTGCCT (site TTGGCAGCTAG) | 0.0513 |
| TTGGAAGCTTGGGTTCTAACCTGTTGCCT (site TTGGGAGCTAG) | 0.541 |
| TTGGAAGCTTGGGTTCTAACCTGTTGCCT (site TTGGTAGCTAG) | 2.19 |
| TTGGAGGCTTGGGTTCTAACCTGTTGCCT (site AGCAGTACTTA) | 0.0388 |
| TTGGAGGCTTGGGTTCTAACCTGTTGCCT (site TTGGAGGCTAG) | 1.45 |
